Assays:
P2Y14 receptors = target: T1, P2Y14 receptors (Rattus norvegicus, UniProt O35881); assay type: cell-based; details: agonist 10 µM; not shown
T1 sequence (O35881 1-305): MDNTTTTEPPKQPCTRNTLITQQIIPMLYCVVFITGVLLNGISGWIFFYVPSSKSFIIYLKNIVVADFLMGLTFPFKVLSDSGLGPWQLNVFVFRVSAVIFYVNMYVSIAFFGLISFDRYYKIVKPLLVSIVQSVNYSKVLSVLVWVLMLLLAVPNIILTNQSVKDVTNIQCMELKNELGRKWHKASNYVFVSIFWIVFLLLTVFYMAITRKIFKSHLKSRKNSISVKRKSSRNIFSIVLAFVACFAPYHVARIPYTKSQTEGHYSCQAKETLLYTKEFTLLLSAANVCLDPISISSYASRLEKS

P2Y receptors = assay: Ca2+ signals; assay type: cell-based, rat; details: for Δ[Ca2+]i Peak: peak increase in [Ca2+]i, populations of cultured ASMC; for pEC50 Peak (Ca2+-free): peak response in Ca2+-free HBS; for pEC50 Peak (with Ca2+): peak response in HBS; for pEC50 Ca2+ entry: sustained Ca2+ entry signal; for Δ[Ca2+]i Sustained: sustained increase measured between 250 and 300 s, cultured ASMC
Gi/o = assay type: cell-based, rat
phospholipase C = assay type: cell-based, rat
P2X1 and P2X3 receptors = details: not shown
[1] = ref Abbracchio et al., 2006; cited from earlier work

| Compound | Δ[Ca2+]i Peak (P2Y receptors) [nM] | pEC50 Peak (with Ca2+) (P2Y receptors) | pEC50 Ca2+ entry (P2Y receptors) | Δ[Ca2+]i Sustained (P2Y receptors) [nM] | other results |
| --- | --- | --- | --- | --- | --- |
| diphosphoric acid 1-α-D-glucopyranosyl ester 2-[(4′-methylthio)uridin-5″-yl] ester [MRS2690] |  |  |  |  | Ca2+ signals evoked in cultured ASMC (P2Y14 receptors): Neither MRS2690 (10 µM) nor UDP-glucose (10 µM) evoked Ca^2+ signals |
| O=c1ccn([C@@H]2O[C@H](COP(=O)(O)OP(=O)(O)O)[C@@H](O)[C@H]2O)c(=O)[nH]1 [UDP] | 94 ± 20 | 6.45 ± 0.45 | 6.83 ± 0.35 | 25 ± 6 | pEC50 Peak (Ca2+-free) (P2Y receptors): 6.16 ± 0.43 |
| Pertussis toxin |  |  |  |  | Effect on responses to UDP (Gi/o; Pertussis toxin 100 ng·mL−1, 24 h): unaffected |
| O=c1ccn([C@@H]2O[C@H](COP(=O)(O)OP(=O)(O)OP(=O)(O)O)[C@@H](O)[C@H]2O)c(=O)[nH]1 [UTP] | 254 ± 47 | 5.23 ± 0.22 | 4.64 ± 0.32 | 67 ± 5 | pEC50 Peak (Ca2+-free) (P2Y receptors): 5.39 ± 0.15 |
| CSc1nc(N)c2ncn([C@@H]3O[C@H](COP(=O)(O)OP(=O)(O)O)[C@@H](O)[C@H]3O)c2n1 [2-MeSADP, 2-methylthio-adenosine-5′-diphosphate] | 122 ± 30 | 7.23 ± 0.53 | 5.58 ± 0.16 | 18 ± 4 |  |
| COc1ccc2c(c1)CC[C@@H]1[C@@H]2CC[C@]2(C)[C@@H](NCCCCCCN3C(=O)CCC3=O)CC[C@@H]12 [U73343, 1-[6-[((17β)-3-methoxyestra-1,3,5 (10)-trien-17-yl)amino]hexyl]-2,5-pyrrolidinedione] |  |  |  |  | Effect on Ca2+ signals evoked by ATP (phospholipase C; ATP 100 µM, inactive analogue of U73122): no effect |
| O=c1ccn([C@@H]2O[C@H](COP(=O)(O)OP(=O)(O)OP(=O)(O)O)[C@@H](O)[C@H]2O)c(=S)[nH]1 [2-thio-UTP, 2-thio-uridine-5′-triphosphate] | 327 ± 42 | 5.89 ± 0.29 |  | 88 ± 26 |  |
| [N-]=[N+]=N[C@@H]1[C@H](O)[C@@H](COP(=O)(O)OP(=O)(O)OP(=O)(O)O)O[C@H]1n1ccc(=O)[nH]c1=O [2′-azido-UTP, 2′-azido-2′-deoxyuridine-5′-triphosphate] | 142 ± 29 | 4.67 ± 0.32 | 4.67 ± 0.06 | 55 ± 20 |  |
| Nc1ncnc2c1ncn2[C@@H]1O[C@H](COP(=O)(O)OP(=O)(O)OP(=O)(O)O)[C@@H](O)[C@H]1O [ATP] | 248 ± 48 | 5.83 ± 0.03 | 5.01 ± 0.13 | 64 ± 20 | pEC50 Peak (Ca2+-free) (P2Y receptors): 5.95 ± 0.10; pEC50 of ATP, peak Ca2+ signal, after Pertussis toxin (Gi/o): 5.30 ± 0.08; pEC50 of ATP, peak Ca2+ signal, without Pertussis toxin (Gi/o; paired control): 5.63 ± 0.09 |
| Nc1ncnc2c1ncn2C1OC(COP(=O)(O)CP(=O)(O)OP(=O)(O)O)C(O)C1O (stereo not drawn) [αβ-meATP, αβ-methylene-adenosine-5′-triphosphate] |  |  |  |  | Ca2+ response in cultured ASMC (P2X1 and P2X3 receptors): no response |
| S=C=Nc1cccc(NC(=S)NCCCCNC(=S)Nc2cccc(N=C=S)c2)c1 [MRS2578, N,N″-1,4-butanediylbis [N′-(3-isothiocyanatophenyl)thio] urea] |  |  |  |  | Solubility in aqueous solution [1]: sparingly soluble; Stability in aqueous solution [1]: unstable |
| COc1ccc2c(c1)CC[C@@H]1[C@@H]2CC[C@]2(C)[C@@H](NCCCCCCN3C(=O)C=CC3=O)CC[C@@H]12 [U73122, 1-[6-[[(17β)-3-methoxyestra-1,3,5 (10)-trien-17-yl]amino]hexyl]-1H-pyrrole-2,5-dione] |  |  |  |  | pIC50 for inhibition of Ca2+ signals evoked by ATP (phospholipase C; ATP 100 µM, inhibitor added 5 min before and during stimulation): 5.78 ± 0.07; Effect on Ca2+ responses to UTP and UDP (phospholipase C; not shown): abolished |
| N[C@@H]1[C@H](O)[C@@H](COP(=O)(O)OP(=O)(O)OP(=O)(O)O)O[C@H]1n1ccc(=O)[nH]c1=O [2′-amino-UTP, 2′-amino-2′-deoxyuridine-5′-triphosphate] | 301 ± 34 | 5.58 ± 0.37 | 5.40 ± 0.23 | 84 ± 36 |  |
| CSc1nc(N)c2ncn([C@H]3[C@H](O)[C@H](O)[C@]4(COP(=O)(O)OP(=O)(O)O)C[C@H]34)c2n1 [MRS2365, (N)-methanocarba-2-MeSADP] | 154 ± 5 | 8.68 ± 0.16 | 8.11 ± 0.32 | 18 ± 7 | pEC50 Peak (Ca2+-free) (P2Y receptors): 8.56 ± 0.06 |
